Laboratory results published in patent publication US20100286145A1, “ISOPHTHALAMIDE DERIVATIVES INHIBITING BETA-SECRETASE ACTIVITY” (CoMentis, Inc., priority 2007, published 2010).

target: memapsin 2 (Homo sapiens, UniProt P56817); assay: Inhibition of memapsin 2 beta-secretase activity (fluorogenic substrate FS-2); assay type: biochemical; conditions: memapsin 2, pH 4, 37° C., fluorogenic substrate FS-2; read-out: M2Ki
Procedure: Potency of compounds were determined by measurement of their inhibition of memapsin 2 activity toward a fluorescent substrate. Kinetic inhibition experiments were performed using the procedure as described in Ermolieff, et al. (Biochemistry 39:12450-12456 (2000), the teachings of which are incorporated hereby in their entirety). Briefly, assays were performed at pH 4, 37° C., by pre-incubation of memapsin 2 enzyme with compound for 20 minutes. Activity measurements were initiated by addition of a fluorogenic substrate FS-2 (Bachem Americas, Torrance, Calif.) MCA-SEVNLDAEFR-DNP (SEQ ID NO.: 2). The substrate was derived from 10 amino acids of the human amyloid precursor protein (APP), with the Swedish variant amino acids at the beta-secretase cleavage site. The terminal amino acid was modified from arginine to lysine to facilitate derivatization with a functional group for detection by autofluorescence. The amino acid sequence of the “core” peptide of the substrate is SEVNLDAEFK (SEQ ID NO.: 3). The amino terminus was derivatized with (7-methoxycoumarin-4-yl)acetyl (MCA), and the epsilon amine of the lysine side chain of the terminal residue (K in sequence SEVNLDAEFK (SEQ ID NO.: 3)) was derivatized with 2,4-dinitorphenyl (DNP).
Fluorescent signal increase over time was measured as a rate of hydrolysis of the peptide substrate. Inhibition of hydrolytic rate was expressed relative to uninhibited controls and fit to a model for tight-binding inhibitors (J. Bieth, in “Proteinase Inhibitors,” Bayer Symposium V, 463-469, 1974, which is herein incorporated by reference for all purposes in its entirety).

Sequence of memapsin 2 (P56817 46-501): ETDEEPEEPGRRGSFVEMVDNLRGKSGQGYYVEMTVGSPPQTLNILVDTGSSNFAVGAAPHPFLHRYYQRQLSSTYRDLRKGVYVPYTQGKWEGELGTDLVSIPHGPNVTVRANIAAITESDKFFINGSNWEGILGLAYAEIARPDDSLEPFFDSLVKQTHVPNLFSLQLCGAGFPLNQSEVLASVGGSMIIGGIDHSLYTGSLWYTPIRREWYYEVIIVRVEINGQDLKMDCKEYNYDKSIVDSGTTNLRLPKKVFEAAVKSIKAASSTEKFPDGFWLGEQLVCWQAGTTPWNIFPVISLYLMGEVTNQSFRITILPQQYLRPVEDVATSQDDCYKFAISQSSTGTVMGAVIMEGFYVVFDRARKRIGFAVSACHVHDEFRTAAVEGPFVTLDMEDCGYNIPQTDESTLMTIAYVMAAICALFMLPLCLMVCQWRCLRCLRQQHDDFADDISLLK

Ki	SMILES
< 300 nM	CN(Cc1nc(CF)cs1)C(=O)c1cccc(C(=O)N[C@@H](Cc2ccccc2)[C@H](O)CNCc2cncc(C(C)(C)F)c2)c1 [Compound 281, N1-((4-(fluoromethyl)thiazol-2-yl)methyl)-N3-((2S,3R)-4-((5-(2-fluoropropan-2-yl)pyridin-3-yl)methylamino)-3-hydroxy-1-phenylbutan-2-yl)-N1-methylisophthalamide]
> 501 nM	COc1ccc(C(F)(F)F)cc1CNC[C@@H](O)[C@H](Cc1ccccc1)NC(=O)c1cccc(C(=O)N(C)Cc2nc(C)cs2)c1 [Compound 282, N1-((2S,3R)-3-hydroxy-4-(2-methoxy-5-(trifluoromethyl)benzylamino)-1-phenylbutan-2-yl)-N3-methyl-N3-((4-methylthiazol-2-yl)methyl)isophthalamide]
< 300 nM	CNc1cc(CNC[C@@H](O)[C@H](Cc2ccccc2)NC(=O)c2cccc(C(=O)N(C)Cc3nc(C)cs3)c2)cc(C(F)(F)F)c1 [Compound 283, N1-((2S,3R)-3-hydroxy-4-(3-(methylamino)-5-(trifluoromethyl)benzylamino)-1-phenylbutan-2-yl)-N3-methyl-N3-((4-methylthiazol-2-yl)methyl)isophthalamide]
< 300 nM	COC(OC)C(C)c1cncc(CNC[C@@H](O)[C@H](Cc2ccccc2)NC(=O)c2cccc(C(=O)N(C)Cc3nc(C)cs3)c2)c1 (stereo partly drawn) [Compound 284, N1-((2S,3R)-4-((5-(1,1-dimethoxypropan-2-yl)pyridin-3-yl)methylamino)-3-hydroxy-1-phenylbutan-2-yl)-N3-methyl-N3-((4-methylthiazol-2-yl)methyl)isophthalamide]
< 300 nM	CC(C)c1cncc(CNC[C@@H](O)[C@H](Cc2ccccc2)NC(=O)c2cccc(C(=O)N(C)Cc3nc(C(F)F)cs3)c2)c1 [Compound 285, N1-((4-(difluoromethyl)thiazol-2-yl)methyl)-N3-((2S,3R)-3-hydroxy-4-((5-isopropylpyridin-3-yl)methylamino)-1-phenylbutan-2-yl)-N1-methylisophthalamide]
< 300 nM	CN(Cc1nc(C(F)F)cs1)C(=O)c1cccc(C(=O)N[C@@H](Cc2ccccc2)[C@H](O)CNCc2cncc(C(C)(C)F)c2)c1 [Compound 286, N1-((4-(difluoromethyl)thiazol-2-yl)methyl)-N3-((2S,3R)-4-((5-(2-fluoropropan-2-yl)pyridin-3-yl)methylamino)-3-hydroxy-1-phenylbutan-2-yl)-N1-methylisophthalamide]
< 300 nM	Cc1csc(CN(C)C(=O)c2cccc(C(=O)N[C@@H](Cc3ccccc3)[C@H](O)CNCc3cnn(C)c3)c2)n1 [Compound 287, N1-((2S,3R)-3-hydroxy-4-((1-methyl-1H-pyrazol-4-yl)methylamino)-1-phenylbutan-2-yl)-N3-methyl-N3-((4-methylthiazol-2-yl)methyl)isophthalamide]
> 501 nM	C=C(C)c1cncc(C(=O)NC[C@@H](O)[C@H](Cc2ccccc2)NC(=O)c2cccc(C(=O)N(C)Cc3nc(C)cs3)c2)c1 [Compound 288, N1-((2S,3R)-3-hydroxy-1-phenyl-4-(5-(prop-1-en-2-yl)nicotinamido)butan-2-yl)-N3-methyl-N3-((4-methylthiazol-2-yl)methyl)isophthalamide]
< 300 nM	Cc1csc(CN(C)C(=O)c2cc(C(=O)N[C@@H](Cc3ccccc3)[C@H](O)CNCc3cccc(C(F)(F)F)c3)cc(-c3ncco3)c2)n1 [Compound 289, N1-((2S,3R)-3-hydroxy-1-phenyl-4-(3-(trifluoromethyl)benzylamino)butan-2-yl)-N3-methyl-N3-((4-methylthiazol-2-yl)methyl)-5-(oxazol-2-yl)isophthalamide]
< 300 nM	COc1cccc([C@@H](C)NC[C@@H](O)[C@H](Cc2ccccc2)NC(=O)c2cc(C(=O)N(C)Cc3nc(C)cs3)cc(-c3ncco3)c2)c1 [Compound 290, N1-((2S,3R)-3-hydroxy-4-((R)-1-(3-methoxyphenyl)ethylamino)-1-phenylbutan-2-yl)-N3-methyl-N3-((4-methylthiazol-2-yl)methyl)-5-(oxazol-2-yl)isophthalamide]
> 501 nM	Cc1csc(CN(C)C(=O)c2cccc(C(=O)N[C@@H](Cc3ccccc3)[C@H](O)CNCc3cccc(C(F)(F)F)c3O)c2)n1 [Compound 291, N1-((2S,3R)-3-hydroxy-4-(2-hydroxy-3-(trifluoromethyl)benzylamino)-1-phenylbutan-2-yl)-N3-methyl-N3-((4-methylthiazol-2-yl)methyl)isophthalamide]
< 300 nM	COc1cccc([C@H](C)NC[C@@H](O)[C@H](Cc2ccccc2)NC(=O)c2cc(C(=O)N(C)Cc3nc(C)cs3)cc(-c3ncco3)c2)c1 [Compound 292, N1-((2S,3R)-3-hydroxy-4-((S)-1-(3-methoxyphenyl)ethylamino)-1-phenylbutan-2-yl)-N3-methyl-N3-((4-methylthiazol-2-yl)methyl)-5-(oxazol-2-yl)isophthalamide]
> 501 nM	Cc1csc(CNC[C@@H](O)[C@H](Cc2ccccc2)NC(=O)c2cccc(C(=O)N(C)Cc3nc(C)cs3)c2)n1 [Compound 294, N1-((2S,3R)-3-hydroxy-4-((4-methylthiazol-2-yl)methylamino)-1-phenylbutan-2-yl)-N3-methyl-N3-((4-methylthiazol-2-yl)methyl)isophthalamide]
< 300 nM	Cc1csc(CN(C)C(=O)c2cc(C(=O)N[C@@H](Cc3ccccc3)[C@H](O)CNCc3cncc(C(C)C)c3)cc(-c3cn[nH]c3)c2)n1 [Compound 295, N1-((2S,3R)-3-hydroxy-4-((5-isopropylpyridin-3-yl)methylamino)-1-phenylbutan-2-yl)-N3-methyl-N3-((4-methylthiazol-2-yl)methyl)-5-(1H-pyrazol-4-yl)isophthalamide]
> 501 nM	COc1cccc(CNC[C@@H](O)[C@H](Cc2ccccc2)NC(=O)c2cccc(C(=O)N(C)Cc3nc(C)cs3)c2O)c1 [Compound 296, 2-hydroxy-N1-((2S,3R)-3-hydroxy-4-(3-methoxybenzylamino)-1-phenylbutan-2-yl)-N3-methyl-N3-((4-methylthiazol-2-yl)methyl)isophthalamide]
> 501 nM	Cc1csc(CN(C)C(=O)c2cccc(C(=O)N[C@@H](Cc3ccccc3)[C@H](O)CNCc3cncc(C(C)C)c3)c2O)n1 [Compound 297, 2-hydroxy-N1-((2S,3R)-3-hydroxy-4-((5-isopropylpyridin-3-yl)methylamino)-1-phenylbutan-2-yl)-N3-methyl-N3-((4-methylthiazol-2-yl)methyl)isophthalamide]
< 300 nM	Cc1csc(CN(C)C(=O)c2cc(C(=O)N[C@@H](Cc3ccccc3)[C@H](O)CNCc3cncc(C(C)C)c3)cc(-c3ccc(N(C)C)cc3)c2)n1 [Compound 298, 4′-(dimethylamino)-N3-((2S,3R)-3-hydroxy-4-((5-isopropylpyridin-3-yl)methylamino)-1-phenylbutan-2-yl)-N5-methyl-N5-((4-methylthiazol-2-yl)methyl)biphenyl-3,5-dicarboxamide]
< 300 nM	Cc1csc(CN(C)C(=O)c2cc(C(=O)N[C@@H](Cc3ccccc3)[C@H](O)CNCc3cncc(C(C)C)c3)cc(-n3ccnc3)c2)n1 [Compound 300, N1-((2S,3R)-3-hydroxy-4-((5-isopropylpyridin-3-yl)methylamino)-1-phenylbutan-2-yl)-5-(1H-imidazol-1-yl)-N3-methyl-N3-((4-methylthiazol-2-yl)methyl)isophthalamide]
< 300 nM	COc1cccc([C@H](C)NC[C@@H](O)[C@H](Cc2ccccc2)NC(=O)c2cc(C(=O)N(C)Cc3nc(C)cs3)cc(C(F)F)c2)c1 [Compound 301, 5-(difluoromethyl)-N1-((2S,3R)-3-hydroxy-4-((S)-1-(3-methoxyphenyl)ethylamino)-1-phenylbutan-2-yl)-N3-methyl-N3-((4-methylthiazol-2-yl)methyl)isophthalamide]
< 300 nM	Cc1csc(CN(C)C(=O)c2cccc(C(=O)N[C@@H](Cc3ccccc3)[C@H](O)CNCc3cc(C(F)(F)F)ccn3)c2)n1 [Compound 302, N1-((2S,3R)-3-hydroxy-1-phenyl-4-((4-(trifluoromethyl)pyridin-2-yl)methylamino)butan-2-yl)-N3-methyl-N3-((4-methylthiazol-2-yl)methyl)isophthalamide]
< 300 nM	Cc1csc(CN(C)C(=O)c2cc(C(=O)N[C@@H](Cc3ccccc3)[C@H](O)CNCc3cncc(C(C)C)c3)cc(-c3ccoc3)c2)n1 [Compound 303, 5-(furan-3-yl)-N1-((2S,3R)-3-hydroxy-4-((5-isopropylpyridin-3-yl)methylamino)-1-phenylbutan-2-yl)-N3-methyl-N3-((4-methylthiazol-2-yl)methyl)isophthalamide]
< 300 nM	Cc1csc(CN(C)C(=O)c2cccc(C(=O)N[C@@H](Cc3ccccc3)[C@H](O)CNCc3cncc(NC(C)C)c3)c2)n1 [Compound 304, N1-((2S,3R)-3-hydroxy-4-((5-(isopropylamino)pyridin-3-yl)methylamino)-1-phenylbutan-2-yl)-N3-methyl-N3-((4-methylthiazol-2-yl)methyl)isophthalamide]
